Measured values from patent US20100028319A1, “COMPOSITION FOR PREVENTION OR TREATMENT OF DIABETES” (KANEKA CORPORATION, priority 2007, published 2010).

Key:
[1] = tested on: HIT-T15 cells; experiment: Effects on ATP production (intracellular ATP level, ATPLite) in HIT-T15 cells; type: cell-based; settings: 24 h + 24 h cultivation
Method: Ham'F12 medium (GIBCO) containing 200 units of penicillin (GIBCO), […] streptomycin (GIBCO), and 10% fetal bovine serum (GIBCO) is normally used as a growth medium for cultivating HIT-T15 cells.
A growth medium containing a fetal bovine serum at a concentration of 0.5% was placed in each well of a 96-well microplate, and HIT-T15 cells were seeded in the wells at a density of 1×10^4 cells/well. Next day, the growth medium of each well was replaced with a growth medium containing 0.5% fetal bovine serum, in which reduced coenzyme A was further added to a final concentration of 6.25, 12.5, 25, 50 or 100 μg/ml. Twenty-four hours later, the medium of each well was removed and replaced with a growth medium (containing 10% fetal bovine serum) in which reduced coenzyme A was added at the same concentration as mentioned above, and cultivation was continued for another 24 hours. After washing three times with PBS, the intracellular ATP level was measured using ATPLite (PerkinElmer).
A growth medium containing a fetal bovine serum at a concentration of 0.5% was placed in each well of a 96-well microplate, and the cells were seeded in the wells at a density of 1×10^4 cells/well. Next day, the growth medium of each well was replaced with a growth medium containing 0.5% fetal bovine serum, in which reduced coenzyme A or three kinds of coenzyme A precursors (pantothenic aid, pantethine, cystein) or oxidized coenzyme A was added. The coenzyme A precursors and the oxidized coenzyme A were added at the same molar concentrations as that of the reduced coenzyme A. Twenty-four hours later, the medium of each well was removed and replaced with a growth medium (containing 10% fetal bovine serum) in which reduced coenzyme A, the coenzyme A precursor, or oxidized coenzyme A was added at the same concentration as mentioned above, and cultivation was continued for another 24 hours. After washing three times with PBS, the intracellular ATP level was measured using ATPLite (PerkinElmer).

[2] = tested on: HIT-T15 cells; experiment: Glucose-responsive insulin secretion in HIT-T15 cells (ELISA); type: cell-based; settings: 50 μg/ml reduced coenzyme A; 20 mM glucose load; supernatant collected at intervals of 30 minutes; FIG. 3
Method: HIT-T15 cells were seeded in the wells of a 96-well plate at a density of 50,000 cells/100 μl medium/well. An RPMI 1640 medium (GIBCO) containing 1% fetal bovine serum and 6 mM glucose was used at this time. Twenty-four hours later, the medium of each well was replaced with an RPMI 1640 medium (containing 1% fetal bovine serum and 6 mM glucose) in which reduced coenzyme A was added to a final concentration of 50 μg/ml. Another 24 hours later, the medium of each well was replaced with an RPMI 1640 medium (containing 10% fetal bovine serum and 6 mM glucose) in which reduced coenzyme A was added to a final concentration of 50 μg/ml. Yet another 24 hours later, the wells were washed with Krebs-Ringer buffer containing 10 mM of HEPES (KRB-HEPES), and further added with 100 μl of KRB-HEPES, followed by culturing for one hour. Next, after removal of the KRB-HEPES, the wells were washed with the same buffer. To the wells was added 100 μl of KRB-HEPES containing 20 mM of glucose, and the supernatant liquid was collected at intervals of 30 minutes for storing frozen. At a later date, the insulin amount in the supernatant liquid samples was assayed using ELISA (Lebis).

[3] = same molar concentrations, FIG. 2

SMILES: CC(C)(COP(=O)(O)OP(=O)(O)OC[C@H]1O[C@@H](n2cnc3c(N)ncnc32)[C@H](O)[C@@H]1OP(=O)(O)O)[C@@H](O)C(=O)NCCC(=O)NCCS [reduced coenzyme A]
- intracellular ATP level in HIT-T15 cells ([1]; reduced coenzyme A added at 6.25, 12.5, 25, 50 or 100 μg/ml, FIG. 1): significantly increased
- ATP production in comparison to addition of oxidized coenzyme A [1, 3]: promoted ATP production significantly in comparison to addition of oxidized coenzyme A
- ATP production in comparison to additions of the precursors (pantothenic acid, pantethine, cystein) and a mixture of the three precursors [1, 3]: promoted ATP production significantly in comparison to additions of the precursors
- glucose-responsive insulin secretion in HIT-T15 cells [2]: significantly promoted
